Experiments:
Details in all cases: 48 h
CU-ACC1 = assay: area under concentration-response curve (viability) (AUC (a.u.)); higher = less active
Procedure, shortened: (§1)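 Three adrenocortical carcinoma cell lines in 1,536-well plates received 23 nL of each library compound at 11 concentrations and were read with CellTiter-Glo after 48 h, with 15 minutes at room temperature before measuring luminescence. Vehicle and empty-well controls served for per-plate normalisation. AC50 and area under the curve were extracted from fitted concentration-response curves, discarding all curve classes other than inhibitory or non-responding.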

NCI-H295R [1] = assay: as above
Procedure, shortened: as §1

CU-ACC2 [2] = assay: as above
Procedure, shortened: as §1

NCI-H295R [3] = assay: AC50 viability; higher = less potent
Procedure, shortened: as §1

CU-ACC2 [4] = assay: AC50 viability; higher = less potent
Procedure, shortened: as §1

| SMILES | area under concentration-response curve (CU-ACC1) | area under concentration-response curve (NCI-H295R [1]) | area under concentration-response curve (CU-ACC2 [2]) | AC50 viability (NCI-H295R [3]) | AC50 viability (CU-ACC2 [4]) |
| --- | --- | --- | --- | --- | --- |
| Cc1ccc(C(=O)Nc2ccc(CN3CCN(C)CC3)c(C(F)(F)F)c2)cc1C#Cc1cnc2[nH]ncc2c1 | 441 | 392 | 427 | 8.33 µM | 8.33 µM |
| Cc1cnc(Nc2ccc(F)cc2Cl)nc1-c1c[nH]c(C(=O)N[C@H](CO)c2cccc(Cl)c2)c1 | 500 | 532 | 572 | 26.3 µM | 18.6 µM |
| Oc1cccc(-c2nc(N3CCOCC3)c3oc4ncccc4c3n2)c1 | 401 | 404 | 427 | 2.09 µM | 0.332 µM |
| O=C1c2ccccc2-[n+]2ccc3c([nH]c4ccccc43)c21 | 379 | 374 | 381 | 2.35 µM | 2.35 µM |
| Cc1cc(Nc2ncc(Cl)c(Nc3ccccc3[S+](=O)([O-])C(C)C)n2)c(OC(C)C)cc1C1CCNCC1 | 439 | 419 | 495 | 5.9 µM | 16.6 µM |
| Nc1nc(N)c(N=O)c(OCC2CCCCC2)n1 | 466 | 451 | 492 | 9.34 µM | 20.9 µM |
| CC[S+](=O)([O-])N1CC(CC#N)(n2cc(-c3ncnc4[nH]ccc34)cn2)C1 | 472 | 513 | 530 | 18.6 µM | 20.9 µM |
| N[S+](=O)([O-])OC[C@@H]1C[C@@H](n2ccc3c(N[C@H]4CCc5ccccc54)ncnc32)C[C@@H]1O | 467 | 468 | 360 | 1.66 µM | 0.468 µM |
| CCC[C@@H](C=O)NC(=O)[C@H](CC(C)C)NC(=O)[C@H](CC(C)C)NC(=O)OCc1ccccc1 | 417 | 439 | 438 | 1.18 µM | 1.48 µM |
| CC[P](CC)(CC)=[Au][S][C@@H]1O[C@H](COC(C)=O)[C@@H](OC(C)=O)[C@H](OC(C)=O)[C@H]1OC(C)=O | 439 | 400 | 445 | 2.09 µM | 1.86 µM |
| COC1=C(OCCCN2CCOCC2)C=C3N=CC=C(OC4=CC=C(C=C4F)\C5=C\N=C(\NC6=CC=C(F)C=C6)N(C)C5=O)C3=C1 | 474 | 400 | 528 | 8.33 µM | 18.6 µM |
| COc1cccc2c1C(=O)c1c(O)c3c(c(O)c1C2=O)C[C@@](O)(C(=O)CO)C[C@@H]3O[C@H]1C[C@H](N)[C@H](O)[C@H](C)O1 | 461 | 452 | 485 | 16.6 µM | 5.9 µM |
| N=C(NCCCCCCNC(=N)NC(=N)Nc1ccc(Cl)cc1)NC(=N)Nc1ccc(Cl)cc1 | 511 | 443 | 573 | 14.8 µM | 23.5 µM |
| COc1ccc([S+](=O)([O-])N(C(C)=O)c2ccccc2/C=C/c2cc[n+]([O-])cc2)cc1 | 482 | 506 | 557 | 5.25 µM | 20.9 µM |
| C=C1C(=O)[C@@]23C(CC[C@@H]1[C@H]2O)[C@@]12CO[C@]3(O)[C@@H](O)[C@@H]1C(C)(C)CC[C@@H]2O (stereo not given in full) | 486 | 529 | 551 | 18.6 µM | 11.8 µM |
| Cn1ncc(Cl)c1-c1cc(C(=O)N[C@H](CN)Cc2ccc(F)c(F)c2)sc1Cl | 488 | 473 | 550 | 14.8 µM | 14.8 µM |
| CC[S+](=O)([O-])Nc1ccc2c(c1)/C(=C(/Nc1ccc(CN3CCCCC3)cc1)c1ccccc1)C(=O)N2 | 447 | 408 | 425 | 5.25 µM | 3.32 µM |
| NC(=O)Nc1cc(-c2cccc(F)c2)sc1C(=O)N[C@H]1CCCNC1 | 397 | 410 | 432 | 2.35 µM | 8.33 µM |
| Cc1nc([C@](C)(O)CO)sc1-c1cnc(N)c(O[C@H](C)c2cc(F)ccc2-n2nccn2)c1 | 480 | 421 | 520 | 2.63 µM | 1.86 µM |

| SMILES | area under concentration-response curve (CU-ACC1) | area under concentration-response curve (NCI-H295R [1]) | area under concentration-response curve (CU-ACC2 [2]) | AC50 viability (NCI-H295R [3]) | AC50 viability (CU-ACC2 [4]) |
| --- | --- | --- | --- | --- | --- |
| C=CC(=O)Nc1cccc(Oc2nc(Nc3ccc(N4CCN(C)CC4)c(F)c3)nc3[nH]ccc23)c1 | 504 | 492 | 557 | 20.9 µM | 18.6 µM |
| O=C(Nc1cc(Oc2cc(F)c(NC(=O)C3(C(=O)Nc4ccc(F)cc4)CC3)cc2F)ccn1)C1CC1 | 445 | 482 | 504 | 10.5 µM | 8.33 µM |
| O=C1Nc2cc(Br)ccc2/C1=C1/Nc2ccccc2/C1=N\O | 480 | 511 | 515 | 23.5 µM | 18.6 µM |
| NC(=O)Nc1sc(-c2ccc(F)cc2)cc1C(N)=O | 511 | 485 | 559 | 5.9 µM | 8.33 µM |
| OC1=CC2=C(C(=C1)O)C(=O)\C=C(/O2)C3=CC=CC=C3 | 397 | 437 | 416 | 0.263 µM | 1.66 µM |
| O=C(c1ccc(/C=C/c2n[nH]c3ccccc23)cc1)N1CCNCC1 | 423 | 397 | 391 | 0.263 µM | 20.9 µM |
| Cc1c(O)cccc1C(=O)NC(CSc1ccccc1)C(O)CN1CC2CCCCC2CC1C(=O)NC(C)(C)C (stereo not given) | 406 | 561 | 550 | 23.5 µM | 20.9 µM |
| CC[C@@H]([C@H](C)O)N1\N=C/N(C1=O)C2=CC=C(C=C2)N3CCN(CC3)C4=CC=C(OCC5CO[C@@](C5)(C[N]6C=NC=N6)C7=C(F)C=C(F)C=C7)C=C4 (stereo not given in full) | 403 | 423 | 447 | 8.33 µM | 7.42 µM |
| C[C@@H](OC[C@@]1(c2ccccc2)CC[C@]2(CCC(=O)N2)CN1)c1cc(C(F)(F)F)cc(C(F)(F)F)c1 | 550 | 497 | 566 | 16.6 µM | 20.9 µM |
| Clc1ccc(C(Cn2ccnc2)OCc2c(Cl)cccc2Cl)c(Cl)c1 (stereo not given) | 371 | 473 | 525 | 20.9 µM | 18.6 µM |
| CN1CCC(C1CO)C2=C(O)C=C(O)C3=C2O\C(=C/C3=O)C4=CC=CC=C4Cl (stereo not given) | 431 | 422 | 417 | 3.32 µM | 0.833 µM |
| COC(=O)[C@@]12OC[C@]34[C@H]([C@@H](O)[C@@H]1O)[C@@]1(C)CC(=O)C(O)=C(C)[C@@H]1C[C@H]3OC(=O)[C@H](OC(=O)/C=C(\C)C(C)C)[C@@H]24 | 251 | 316 | 280 | 0.263 µM | 0.0417 µM |
| CC(=O)O[C@H]1C(=O)[C@]2(C)[C@@H](O)C[C@H]3OC[C@@]3(OC(C)=O)C2[C@H](OC(=O)C4=CC=CC=C4)[C@]5(O)C[C@H](OC(=O)[C@H](O)[C@@H](NC(=O)C6=CC=CC=C6)C7=CC=CC=C7)\C(=C1/C5(C)C)C (stereo not given in full) | 424 | 379 | 473 | 0.209 µM | 8.33 µM |
| C[C@H]1[C@H](OC(=O)CCC(=O)O)O[C@@H]2O[C@@]3(C)CC[C@H]4[C@H](C)CC[C@@H]1[C@@]24OO3 | 354 | 522 | 585 | 20.9 µM | 20.9 µM |
| CN1C(=O)c2sccc2N(C)c2nc(Nc3ccc([S+](N)(=O)[O-])cc3)ncc21 | 460 | 431 | 467 | 5.25 µM | 14.8 µM |
| Cn1c2ccccc2c2c3c(c4c5ccccc5n(CCC#N)c4c21)CNC3=O | 401 | 503 | 535 | 14.8 µM | 16.6 µM |
| CCc1nc(C(N)=O)c(Nc2ccc(N3CCC(N4CCN(C)CC4)CC3)c(OC)c2)nc1NC1CCOCC1 | 533 | 500 | 477 | 4.17 µM | 13.2 µM |
| CC(C)C(N)C(=O)OCC(CO)OC[N]1C=NC2=C1N\C(=N/C2=O)N (stereo not given) | 426 | 436 | 436 | 0.661 µM | 5.25 µM |
| CCN(CC)CCNc1ccc(C)c2sc3ccccc3c(=O)c12 | 447 | 456 | 489 | 20.9 µM | 20.9 µM |

| SMILES | area under concentration-response curve (CU-ACC1) | area under concentration-response curve (NCI-H295R [1]) | area under concentration-response curve (CU-ACC2 [2]) | AC50 viability (NCI-H295R [3]) | AC50 viability (CU-ACC2 [4]) |
| --- | --- | --- | --- | --- | --- |
| O=c1[nH]c2ccccc2n1C1CCN(Cc2ccc(-c3nc4cc5nc[nH]c5cc4nc3-c3ccccc3)cc2)CC1 | 558 | 492 | 604 | 20.9 µM | 20.9 µM |
| COc1ccc(-c2ccc3ncc4c(c3c2)n(-c2ccc(N3CCNCC3)c(C(F)(F)F)c2)c(=O)n4C)cn1 | 376 | 330 | 385 | 1.05 µM | 1.86 µM |
| CN(C)Cc1ccc([S+](=O)([O-])n2ccc(/C=C/C(=O)NO)c2)cc1 | 461 | 465 | 496 | 16.6 µM | 9.34 µM |
| CN1C/C=C/CCOc2cccc(c2)-c2ccnc(n2)Nc2cccc(c2)C1 | 208 | 164 | 165 | 0.235 µM | 0.0525 µM |
| Cc1cc(O)c(-c2ccc([C@@H](C)CN)cc2)c2c1[nH]c(=O)c1sccc12 | 203 | 128 | 223 | 0.00105 µM | 0.148 µM |
| CC/C(=C(/c1ccc(O)cc1)c1ccc(OCCNC)cc1)c1ccccc1 | 393 | 359 | 403 | 7.42 µM | 9.34 µM |
| COc1ccc2[nH]c3c(c2c1)CCN[C@]31CS[C@@H]2c3c(OC(C)=O)c(C)c4c(c3[C@H](COC1=O)N1[C@@H]2[C@H]2c3c(cc(C)c(OC)c3O)C[C@@H]([C@@H]1O)N2C)OCO4 | 178 | 161 | 187 | 0.00762 µM | 0.00762 µM |
| N[S+](=O)([O-])c1cccc2c1C(=O)c1cccc(O)c1C2=O | 315 | 370 | 380 | 0.661 µM | 0.661 µM |
| CC1(COc2ccc3c(c2)ncn3-c2ccc3cccc(N4CCC(N)CC4)c3n2)COC1 | 545 | 439 | 556 | 16.6 µM | 13.2 µM |
| CC(=O)O/N=C1/C(=C2\C(=O)Nc3cc(Br)ccc32)Nc2ccccc21 | 492 | 525 | 561 | 13.2 µM | 9.34 µM |
| CN1CCN(c2ccc(C(=O)Nc3n[nH]c4ccc(Cc5cc(F)cc(F)c5)cc34)c(NC3CCOCC3)c2)CC1 | 470 | 434 | 470 | 5.9 µM | 5.25 µM |
| N#Cc1cc2cc(CN3CCC(Nc4ncnc5sc(CC(F)(F)F)cc45)CC3)c(O)cc2n1Cc1cn[nH]c1 | 527 | 501 | 565 | 18.6 µM | 18.6 µM |
| O=C(Nc1ccc([N+](=O)[O-])cc1Cl)c1cc(Cl)ccc1O | 411 | 481 | 471 | 1.48 µM | 1.48 µM |
| c1ccc2c(-c3cnn4cc(-c5ccc(N6CCNCC6)cc5)cnc34)ccnc2c1 | 434 | 439 | 498 | 2.09 µM | 2.95 µM |
| COc1cc2ncn(-c3cc(OCc4ccccc4[S+](C)(=O)[O-])c(C#N)s3)c2cc1OC | 351 | 376 | 399 | 37.2 µM | 33.2 µM |
| Cc1ccc(C(=O)OCc2ccc([C@@H](CN)C(=O)Nc3ccc4cnccc4c3)cc2)c(C)c1 | 507 | 534 | 591 | 12.9 µM | 9.11 µM |
| CCCCC(C)(C)[C@H](O)/C=C/[C@H]1[C@H](O)CC(=O)[C@@H]1C/C=C\CCCC(=O)O | 325 | 211 | 307 | 0.00372 µM | 0.105 µM |
| N#Cc1ccc2c(c1)CN([S+](=O)([O-])c1cccs1)[C@H](Cc1ccccc1)CN2Cc1cnc[nH]1 | 350 | 485 | 405 | 8.33 µM | 0.833 µM |

From the supplement of paper PMC10949913
